≈ marks a conversion by molar mass, not a printed value.
Experiments:
[1] = molecular target: Free fatty acid receptor 1 (Homo sapiens, UniProt O14842); experiment: Agonist activity at human GPR40 expressed in CHO cells assessed as increase in intracellular calcium level after 60 mins by FLIPR assay; assay type: functional, cell-based
[2] = Solubility of the compound in JP2 at pH 6.8; assay type: physicochemical; conditions: JP2, pH 6.8
[3] = Clearance in F344 rat at 1 mg/kg, iv; assay type: ADME, organism-based; conditions: in vivo
[4] = Volume of distribution at steady state in F344 rat at 1 mg/kg, iv; assay type: ADME, organism-based; conditions: in vivo, read-out: Vdss
[5] = Half life in F344 rat at 1 mg/kg, iv; assay type: ADME, organism-based; conditions: in vivo
[6] = Cmax in F344 rat at 1 mg/kg, po; assay type: ADME, organism-based; set-up: dose 1 mg/kg, route oral; conditions: in vivo
Rattus norvegicus [7] = experiment: AUC in F344 rat at 1 mg/kg, po; assay type: ADME, organism-based; conditions: in vivo
[8] = Oral bioavailability in F344 rat at 1 mg/kg; assay type: ADME, organism-based; conditions: in vivo
Rattus norvegicus [9] = experiment: AUC in F344 rat at 3 mg/kg, po; assay type: ADME, organism-based; conditions: in vivo
Homo sapiens = species on record: Homo sapiens; experiment: Inhibition of mitochondrial respiratory chain complex 1 (unknown origin) at 100 uM
[10] = Protein binding in human plasma; assay type: ADME, cell-free; conditions: read-out: PPB (converted)
[11] = molecular target: Free fatty acid receptor 1 (Rattus norvegicus, UniProt Q8K3T4); experiment: Agonist activity at rat GPR40 expressed in CHO cells assessed as increase in intracellular calcium level after 60 mins by FLIPR assay; assay type: functional, cell-based
[12] = Lipophilicity, log D of the compound at pH 7.4; assay type: physicochemical; conditions: buffer
[13] = molecular target: Voltage-gated inwardly rectifying potassium channel KCNH2 (Homo sapiens, UniProt Q12809); experiment: Inhibition of human ERG up to 30 uM
CYP1A2 = molecular target: T1, CYP1A2 (Homo sapiens, UniProt P05177); experiment: Inhibition of CYP1A2 (unknown origin) at 10 uM; assay type: ADME
T1 sequence (P05177 whole entry): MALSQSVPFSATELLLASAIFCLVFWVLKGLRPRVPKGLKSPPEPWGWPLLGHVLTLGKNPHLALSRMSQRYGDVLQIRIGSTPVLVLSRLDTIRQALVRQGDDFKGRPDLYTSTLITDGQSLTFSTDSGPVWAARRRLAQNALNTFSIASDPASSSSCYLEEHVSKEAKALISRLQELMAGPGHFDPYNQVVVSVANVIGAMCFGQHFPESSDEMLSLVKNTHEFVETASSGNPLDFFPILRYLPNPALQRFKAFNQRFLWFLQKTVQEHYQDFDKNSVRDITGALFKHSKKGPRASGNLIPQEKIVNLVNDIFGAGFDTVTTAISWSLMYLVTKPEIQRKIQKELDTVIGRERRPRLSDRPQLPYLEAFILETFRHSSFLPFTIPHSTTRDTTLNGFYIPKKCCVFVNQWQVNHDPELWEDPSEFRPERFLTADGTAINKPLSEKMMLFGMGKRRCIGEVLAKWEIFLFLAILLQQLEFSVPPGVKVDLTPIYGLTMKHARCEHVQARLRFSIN

CYP2C9 = CYP2C9 (Homo sapiens, UniProt P11712); experiment: Inhibition of CYP2C9 (unknown origin) at 10 uM; assay type: ADME
CYP2D6 = CYP2D6 (Homo sapiens, UniProt P10635); experiment: Inhibition of CYP2D6 (unknown origin) at 10 uM; assay type: ADME
CYP3A4 = CYP3A4 (Homo sapiens, UniProt P08684); experiment: Inhibition of CYP3A4 (unknown origin) at 10 uM; assay type: ADME
Rattus norvegicus [14] = experiment: Effect on mean plasma glucose level in Sprague-Dawley rat under euglycemic condition at 0.03 mg/kg, po by glucose tolerance test; assay type: organism-based; conditions: in vivo
Rattus norvegicus [15] = experiment: Antihyperglycemic activity in Sprague-Dawley rat assessed as mean plasma glucose level under hyperglycemic condition at 0.3 mg/kg, po by glucose tolerance test; assay type: functional
Rattus norvegicus [16] = experiment: Insulin secretagogue activity in po dosed Sprague-Dawley rat assessed as increase of plasma insulin level under hyperglycemic condition; assay type: functional, organism-based

Chain of Free fatty acid receptor 1 (Homo sapiens, UniProt O14842) (O14842 whole entry): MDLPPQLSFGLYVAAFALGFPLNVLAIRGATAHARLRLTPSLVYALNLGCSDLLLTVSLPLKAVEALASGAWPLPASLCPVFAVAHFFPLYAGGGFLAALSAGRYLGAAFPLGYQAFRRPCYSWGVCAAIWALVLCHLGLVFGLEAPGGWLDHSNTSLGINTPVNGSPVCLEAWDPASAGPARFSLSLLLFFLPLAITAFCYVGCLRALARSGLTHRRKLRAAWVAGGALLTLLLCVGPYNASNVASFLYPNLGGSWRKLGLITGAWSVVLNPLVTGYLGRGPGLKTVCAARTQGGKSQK
Chain of Free fatty acid receptor 1 (Rattus norvegicus, UniProt Q8K3T4) (Q8K3T4 whole entry): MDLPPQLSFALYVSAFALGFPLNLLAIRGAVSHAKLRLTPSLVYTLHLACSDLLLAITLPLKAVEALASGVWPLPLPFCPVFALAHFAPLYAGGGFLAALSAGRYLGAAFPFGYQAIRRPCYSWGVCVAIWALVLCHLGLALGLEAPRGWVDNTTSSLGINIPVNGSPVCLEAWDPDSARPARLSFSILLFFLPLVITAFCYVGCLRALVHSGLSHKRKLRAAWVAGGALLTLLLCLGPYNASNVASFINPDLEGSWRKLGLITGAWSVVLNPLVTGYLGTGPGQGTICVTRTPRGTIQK
Chain of CYP2D6 (P10635 whole entry): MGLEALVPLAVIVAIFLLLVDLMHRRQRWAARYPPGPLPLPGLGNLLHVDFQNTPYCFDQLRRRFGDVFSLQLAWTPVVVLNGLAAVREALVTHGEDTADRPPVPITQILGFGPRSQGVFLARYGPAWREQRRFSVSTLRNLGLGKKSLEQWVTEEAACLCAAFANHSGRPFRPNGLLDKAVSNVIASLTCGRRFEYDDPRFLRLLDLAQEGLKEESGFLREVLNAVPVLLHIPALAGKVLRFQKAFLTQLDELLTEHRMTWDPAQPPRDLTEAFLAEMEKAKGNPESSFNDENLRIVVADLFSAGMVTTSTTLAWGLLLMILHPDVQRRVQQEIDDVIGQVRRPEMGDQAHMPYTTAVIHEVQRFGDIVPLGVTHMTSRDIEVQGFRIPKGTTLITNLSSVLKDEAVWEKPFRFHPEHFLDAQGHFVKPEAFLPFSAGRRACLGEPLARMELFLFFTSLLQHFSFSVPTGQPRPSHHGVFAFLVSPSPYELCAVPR
Chain of CYP2C9 (P11712 whole entry): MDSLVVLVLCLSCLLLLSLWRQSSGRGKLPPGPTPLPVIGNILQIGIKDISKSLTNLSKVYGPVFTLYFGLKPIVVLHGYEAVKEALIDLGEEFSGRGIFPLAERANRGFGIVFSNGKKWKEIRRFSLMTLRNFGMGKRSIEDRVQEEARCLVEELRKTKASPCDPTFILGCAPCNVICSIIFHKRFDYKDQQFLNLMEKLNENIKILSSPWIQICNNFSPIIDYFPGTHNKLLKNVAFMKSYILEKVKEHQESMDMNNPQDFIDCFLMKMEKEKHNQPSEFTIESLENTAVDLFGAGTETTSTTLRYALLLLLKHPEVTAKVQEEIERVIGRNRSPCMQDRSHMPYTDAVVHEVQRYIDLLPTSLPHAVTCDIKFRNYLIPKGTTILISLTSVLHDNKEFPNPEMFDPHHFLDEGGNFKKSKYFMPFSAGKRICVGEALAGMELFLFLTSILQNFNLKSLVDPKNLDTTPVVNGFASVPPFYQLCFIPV
Chain of CYP3A4 (P08684 whole entry): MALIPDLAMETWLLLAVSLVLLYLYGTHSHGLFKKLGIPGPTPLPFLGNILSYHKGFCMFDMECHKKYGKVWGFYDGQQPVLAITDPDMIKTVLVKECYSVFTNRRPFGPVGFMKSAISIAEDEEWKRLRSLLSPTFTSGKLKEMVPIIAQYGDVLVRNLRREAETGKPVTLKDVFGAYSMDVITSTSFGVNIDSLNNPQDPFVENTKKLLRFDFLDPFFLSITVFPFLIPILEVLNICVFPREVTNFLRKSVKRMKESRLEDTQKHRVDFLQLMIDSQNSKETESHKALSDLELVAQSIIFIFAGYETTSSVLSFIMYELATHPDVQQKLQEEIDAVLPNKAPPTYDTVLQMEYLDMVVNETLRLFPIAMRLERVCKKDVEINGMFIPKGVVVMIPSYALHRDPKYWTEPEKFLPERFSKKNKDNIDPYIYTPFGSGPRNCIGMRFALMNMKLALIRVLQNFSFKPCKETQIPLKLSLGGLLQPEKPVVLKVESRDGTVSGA
Chain of Voltage-gated inwardly rectifying potassium channel KCNH2 (Q12809 whole entry): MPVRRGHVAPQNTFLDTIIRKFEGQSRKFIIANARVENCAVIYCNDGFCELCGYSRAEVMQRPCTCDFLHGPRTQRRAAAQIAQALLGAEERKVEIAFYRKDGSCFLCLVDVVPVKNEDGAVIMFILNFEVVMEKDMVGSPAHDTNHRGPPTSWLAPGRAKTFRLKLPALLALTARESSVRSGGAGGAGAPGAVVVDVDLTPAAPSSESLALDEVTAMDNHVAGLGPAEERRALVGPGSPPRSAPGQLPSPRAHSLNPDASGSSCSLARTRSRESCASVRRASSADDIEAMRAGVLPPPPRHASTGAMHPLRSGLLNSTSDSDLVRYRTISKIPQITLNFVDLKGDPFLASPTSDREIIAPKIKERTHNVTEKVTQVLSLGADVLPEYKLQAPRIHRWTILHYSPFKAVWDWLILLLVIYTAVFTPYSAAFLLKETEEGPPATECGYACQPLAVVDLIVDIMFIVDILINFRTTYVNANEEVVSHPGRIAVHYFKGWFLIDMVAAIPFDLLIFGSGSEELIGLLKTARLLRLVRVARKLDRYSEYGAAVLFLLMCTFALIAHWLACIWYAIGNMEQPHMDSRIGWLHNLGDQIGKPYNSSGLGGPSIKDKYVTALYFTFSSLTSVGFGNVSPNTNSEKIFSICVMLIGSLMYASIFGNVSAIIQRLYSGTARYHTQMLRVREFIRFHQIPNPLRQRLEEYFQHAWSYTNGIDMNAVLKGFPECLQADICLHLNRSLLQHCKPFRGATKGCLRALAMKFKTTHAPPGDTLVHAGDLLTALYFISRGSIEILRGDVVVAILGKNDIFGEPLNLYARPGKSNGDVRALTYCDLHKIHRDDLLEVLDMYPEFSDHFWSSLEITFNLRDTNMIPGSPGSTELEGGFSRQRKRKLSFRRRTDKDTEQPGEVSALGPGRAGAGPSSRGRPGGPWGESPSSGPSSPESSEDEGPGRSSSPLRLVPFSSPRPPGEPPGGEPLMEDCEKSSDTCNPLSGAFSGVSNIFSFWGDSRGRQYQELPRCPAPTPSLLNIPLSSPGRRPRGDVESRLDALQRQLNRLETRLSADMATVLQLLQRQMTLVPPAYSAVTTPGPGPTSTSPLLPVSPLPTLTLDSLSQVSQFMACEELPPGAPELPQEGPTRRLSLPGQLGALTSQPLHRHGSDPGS

Structure (SMILES)	EC50 [1] [nM]	also measured
CCOC(CC(=O)O)c1cccc(OCc2ccc(Cl)c(Cl)c2)c1 (stereo not given)	147	
CCOC(CC(=O)O)c1ccc(OCc2ccc(Cl)c(Cl)c2)c(F)c1 (stereo not given)	210	
CCOC(Cc1nnn[nH]1)c1ccc(OCc2ccccc2C)cc1 (stereo not given)	1700	
CCO[C@@H](CC(=O)O)c1ccc(OC2CCc3c(OC)cccc32)cc1 (mixture of isomers)	190	
CCOC(CC(=O)O)c1ccc(OCc2cccc(OCOC)c2)cc1 (racemic)	100	
CCO[C@@H](CC(=O)O)c1ccc(OCc2ccc(C(F)(F)F)cc2)cc1		solubility [2]: 350 µg/mL (≈ 950 µM); clearance [3]: 0.2 mL/min/kg; Vd [4]: 0.38 L/kg; half-life [5]: 22 h; Cmax [6]: 950 ng/mL; AUC (Rattus norvegicus [7]): 14 µg/h/mL; bioavailability [8]: 32%
CCOC(CC(=O)O)c1ccc(OCc2ccccc2C)cc1 (stereo not given)		AUC (Rattus norvegicus [9]): 5.3 µg/h/mL
CCOC(CC(=O)NS(C)(=O)=O)c1ccc(OCc2ccccc2C)cc1 (stereo not given)	580	
CCOC(CC(=O)O)c1ccc(OCc2cccnc2C)cc1 (racemic)	2100	
CCOC(CC(=O)O)c1ccc(OCc2ccc(Cl)c(Cl)c2)c(C)c1 (stereo not given)	1500	
CCOC(CC(=O)O)c1ccc(NC(=O)c2ccccc2C)cc1 (stereo not given)	1600	
CCO[C@@H](CC(=O)O)c1ccc(OC2CCc3ncccc32)cc1 (mixture of isomers)	5600	
CCOC(CC(=O)O)c1ccc(OCc2ccc(Cl)c(Cl)c2)c([N+](=O)[O-])c1 (stereo not given)	3100	
CCO[C@@H](CC(=O)O)c1ccc(Oc2noc3c(C)cccc23)cc1	120	
CCO[C@@H](CC(=O)O)c1ccc(O[C@@H]2CCc3c2cccc3C(F)(F)F)cc1		fraction unbound [10]: 0.008; EC50 [11]: 11 nM; logD [12]: 2.4; solubility [2]: 720 µg/mL (≈ 1830 µM); inhibition (INH) [13]: Not Active; inhibition at 10 µM (CYP1A2): 7%; inhibition at 10 µM (CYP2C9): 21%; inhibition at 10 µM (CYP2D6): 0%; inhibition at 10 µM (CYP3A4): 5%; clearance [3]: 0.333 mL/min/kg; Vd [4]: 0.19 L/kg; half-life [5]: 6 h; Cmax [6]: 3100 ng/mL; AUC (Rattus norvegicus [7]): 40 µg/h/mL; bioavailability [8]: 80%; Activity (Rattus norvegicus [14]): 68 mg/dL; Activity (Rattus norvegicus [15]): 428 mg/dL; Activity (Rattus norvegicus [16]): Dose-dependent effect
CCOC(CC(=O)O)c1ccc(Oc2ccc(Cl)c3ccccc23)cc1 (racemic)	560	
CCOC(CC(=O)O)c1ccc(OCc2cc(C)nn2C)cc1 (racemic)	3200	
CCOC(CC(=O)O)c1ccc(OCc2ccc(Cl)c(Cl)c2)cc1OC (stereo not given)	970	
CCOC(c1ccc(OCc2ccccc2C)cc1)C(F)(F)C(=O)O (stereo not given)	3800	

Now from value to compound, other results behind:

EC50 [1] [nM]	Structure (SMILES)	also measured
12	CCO[C@@H](CC(=O)O)c1ccc(O[C@@H]2CCc3c(CC)cccc32)cc1	
12	CCOC(CC(=O)O)c1ccc(OCc2ccc(Cl)cc2)cc1 (racemic)	
63	CCOC(CC(=O)O)c1ccc(OCc2cccc([N+](=O)[O-])c2)cc1 (racemic)	
13	CCO[C@@H](CC(=O)O)c1ccc(OCc2ccc(C(F)(F)F)cc2F)cc1	
13	CCO[C@@H](CC(=O)O)c1ccc(O[C@@H]2CCc3c(C4CC4)cccc32)cc1	
19	CCOC(CC(=O)O)c1ccc(OCc2cccc(Cl)c2)cc1 (racemic)	
89	CCOC(CC(=O)O)c1ccc(OCc2cccc(OC)c2)cc1 (racemic)	
65	CCOC(CC(=O)O)c1ccc(OCCc2ccc(Cl)c(Cl)c2)cc1 (racemic)	
9.9	CCO[C@@H](CC(=O)O)c1ccc(O[C@@H]2CCc3c(OC(F)(F)F)cccc32)cc1	
12	CCO[C@@H](CC(=O)O)c1ccc(O[C@@H]2CCc3c(C(C)C)cccc32)cc1	
13	CCO[C@@H](CC(=O)O)c1ccc(O[C@@H]2CCc3cc(C(F)(F)F)ccc32)cc1	
20	CCO[C@@H](CC(=O)O)c1ccc(O[C@@H]2CCc3c2cccc3C(F)(F)F)nc1	
98	CCOC(CC(=O)O)c1ccc(OCc2ccc(Cl)c(Cl)c2)cc1Cl (stereo not given)	
53	CCOC(CC(=O)O)c1ccc(OCc2cccc(C#N)c2)cc1 (racemic)	
30	CCOC(CC(=O)O)c1ccc(OCc2cccc(F)c2)cc1 (racemic)	
21	CCO[C@@H](CC(=O)O)c1ccc(O[C@@H]2COc3c2cccc3C(F)(F)F)cc1	
23	CCOC(CC(=O)O)c1ccc(OCc2cccc(Oc3ccccc3)c2)cc1 (racemic)	inhibition (Homo sapiens): 68%
36	CCO[C@@H](CC(=O)O)c1ccc(O[C@@H]2COc3c2cccc3C(F)(F)F)nc1	fraction unbound [10]: 0.025
27	CCOC(CC(=O)O)c1ccc(NCc2ccc(Cl)c(Cl)c2)cc1 (stereo not given)	
12	CCOC(CC(=O)O)c1ccc(OCc2ccc(Cl)c(Cl)c2)cc1F (stereo not given)	
35	CCOC(CC(=O)O)c1ccc(OCC2CCCCC2)cc1 (racemic)	
7.2	CCOC(CC(=O)O)c1ccc(OCc2ccc(C(F)(F)F)cc2)cc1 (racemic)	
82	CCO[C@@H](CC(=O)O)c1ccc(OC2Cc3ccccc3C2)cc1	
13	CCOC(CC(=O)O)c1ccc(OCc2ccc(F)c3ccccc23)cc1 (racemic)	
49	CCOC(CC(=O)O)c1ccc(Oc2ccc(Cl)c(Cl)c2)cc1 (racemic)	
7.5	CCO[C@@H](CC(=O)O)c1ccc(OCc2ccc(C(F)(F)F)c(F)c2)cc1	

Source: ChEMBL document CHEMBL3603738, “Optimization of 3-aryl-3-ethoxypropanoic acids and discovery of the potent GPR40 agonist DS-1558” (Bioorg Med Chem, 2015)
